# Results: patent US20230110128A1, “USE OF ANTIBODY DRUG CONJUGATES COMPRISING TUBULIN DISRUPTING AGENTS TO TREAT SOLID TUMOR” (Seagen Inc., priority 2018, published 2023)
# “Also recorded” adds a separate entry of the source. Non-standard residues stand in square brackets, D forms with d. Residues, ends and D or L forms follow the SMILES beside them. *: point of attachment. Dolaproine = CO[C@@H]([C@@H]1CCCN1)[C@@H](C)C(=O)O; Dil = CC[C@H](C)[C@H](NC)[C@@H](CC(=O)O)OC; X1 = C[C@@H](N*)[C@@H](O)c1ccccc1; NMeV = CN[C@H](C(=O)O)C(C)C
# Legend:
# Format in all cases: cell-based
# [1] = test system: MCF7 cells; assay: HMGB1 release from MCF7 cells
# Experimental: (§1) Induction of ICD is also characterized by the secretion of ATP and HMGB1. Extracellular ATP serves as a strong chemotactic signal, promoting immune cell migration to the tumor site. Upon arrival, extracellular HMGB1 signals through various pro-inflammatory receptors (TLR2, TLR4, RAGE) to activate antigen-presenting cells, thereby promoting immune activity within the tumor.
# as §1, with “MCF7 cells were treated with MMAE or an MMAE-containing ADC (SGN-LIV1A) for 16 hours and harvested in […] for western bot analysis. […] Induction” for “Induction”
# [2] = test system: PC-3 cells; assay: Western blot analysis of ER stress in PC-3 cells; details: 24 hours
# Experimental: PC-3 prostate tumor cells were also treated with MMAE, Vincristine, or Paclitaxel. Supernatant was collected after 16 hours of treatment, and analyzed for ATP secretion. […] PC-3 cells were treated for 24 hours with an MMAE-containing ADC (SGN-LIV1A) or MMAE and harvested in RIPA buffer for western blot analysis (FIG. 3C).
# [3] = test system: HeLa cervical cancer cells; assay: Western blot analysis of ER stress in HeLa cells; details: 1000 nM or 100 nM, 16 hours
# Experimental: HeLa cervical cancer cells were treated with 1000 nM or 100 nM MMAE, Vincristine, or Paclitaxel for 16 hours and harvested for western blot analysis.
# [4] = test system: BxPC3 and HPAFII (pancreas) cells co-cultured with macrophages; assay: Macrophage antigen presentation after co-culture with treated pancreas tumor cells; details: BxPC3 and HPAFII treated 24 hours; macrophages harvested 4 days after co-culture
# Experimental: Macrophages were enriched from PBMCs from 2 healthy donors by adhering PBMCs to cell culture-grade plastic. Non-adherent cells were removed 24 hours later, leaving a population of cells enriched for macrophages.
# BxPC3 and HPAFII (pancreas) cells were treated with MMAE, vincristine, and Paclitaxel for 24 hours. Cells were washed and harvested, and subsequently co-cultured with the enriched macrophages prepared above. Macrophages were harvested 4 days after co-culture and assayed for immune activation by flow cytometry. Level of antigen-presentation (as measured by frequency of MHCII-expressing cells) was quantified and normalized to macrophages that were co-cultured with untreated tumor cells.
# [5] = test system: Calu-1 cells co-cultured with macrophages; assay: Cytokine and chemokine production in macrophage co-culture with treated Calu-1 cells; details: Calu-1 co-culture supernatant 24 hours, ELISA, normalized to untreated
# Experimental: Supernatant from the co-culture of macrophages and dying tumor cells was harvested 24 hours later and assayed for levels of cytokine and chemokine production by ELISA and normalized to macrophages that were co-cultured with untreated tumor cells as described above.
# [6] = test system: MCF7 cells co-cultured with macrophages; assay: Macrophage antigen presentation after co-culture with treated MCF7 cells; details: MCF7 treated 24 hours; macrophages harvested 4 days after co-culture
# Experimental: (§2) MCF7 […] cells were treated with MMAE, an MMAE-containing ADC (anti-CD71 OKT9-1006), vincristine, and Paclitaxel for 24 hours. Cells were washed and harvested, and subsequently co-cultured with the enriched macrophages prepared above. Macrophages were harvested 4 days after co-culture and assayed for immune activation by flow cytometry. […] Supernatant from the co-culture of macrophages and dying MCF7 cells was harvested 24 hours later and assayed for levels of cytokine and chemokine production by ELISA and normalized to macrophages that were co-cultured with untreated tumor cells.
# [7] = test system: MCF7 cells co-cultured with macrophages; assay: Cytokine and chemokine production in macrophage co-culture with treated MCF7 cells; details: MCF7 co-culture supernatant 24 hours, ELISA, normalized to untreated
# Experimental: as §2
# [8] = test system: MDA-MB-468 cells; assay: ATP secretion from MDA-MB-468 cells; details: supernatant after 48 hours
# Experimental: MDA-MB-468 cells were treated with MMAE or an MMAE-containing ADC (ASG-22ME). Supernatant was collected after 48 hours of treatment, and analyzed for ATP secretion.
# [9] = test system: Hep3b, Huh7, and JHH7 cells; assay: ATP secretion from liver tumor lines; details: Huh7, JHH7, 24 hours
# Experimental: Liver tumor lines Hep3b, Huh7, and JHH7 cells were treated with MMAE, Tubulysin M, vincristine, and Paclitaxel for 24 hours and analyzed for ATP secretion. […] Cells were washed and harvested, and subsequently co-cultured with enriched macrophages prepared as above. Macrophages were harvested 4 days after co-culture and assayed for immune activation by flow cytometry. Levels of costimulation (as measured by CD86 expression, JHH7) and antigen-presentation (as measured by frequency of MHCII-expressing cells, Hep3b, Huh7, and JHH7) were quantified and normalized to macrophages that were co-cultured with […]. […] Supernatant from the co-culture of macrophages and dying liver tumor cells was harvested 24 hours later and assayed for levels of cytokine and chemokine production by ELISA and normalized to macrophages that were co-cultured with untreated tumor cells.
# [10] = test system: T-24 cells co-cultured with macrophages; assay: Macrophage antigen presentation after co-culture with treated T-24 cells; details: T-24 treated 24 hours; macrophages harvested 4 days after co-culture
# Experimental: (§3) T-24 (bladder) cells were treated with MMAE or an MMAE-containing ADC (ASG-22ME) for 48 hours and analyzed for ATP secretion. […] T-24 cells were also treated with MMAE, an MMAE-containing ADC (ASG22ME, Enfortumab vedotin), vincristine, and Paclitaxel for 24 hours. Cells were washed and harvested, and subsequently co-cultured with the enriched macrophages as above. Macrophages were harvested 4 days after co-culture and assayed for immune activation by flow cytometry. Level of antigen-presentation (as measured by frequency of MHCII-expressing macrophages) was quantified and normalized to macrophages that were co-cultured with untreated tumor cells. […] Supernatant from the co-culture of macrophages and dying T-24 tumor cells was harvested after 24 hours and assayed for levels of cytokine and chemokine production by ELISA and normalized to macrophages that were co-cultured with untreated tumor cells.
# [11] = test system: T-24 tumor cells co-cultured with macrophages; assay: Cytokine and chemokine production in macrophage co-culture with treated T-24 cells; details: T-24 co-culture supernatant after 24 hours, ELISA, normalized to untreated
# Experimental: as §3
# [12] = test system: U-266 cells; assay: Cell surface ICD markers (HSP70, calreticulin) on AnnexinV negative U-266 cells; details: 48 hours, MMAE 492 nM, SGN-CD48A 10 ng/ml
# Experimental: U-266 cells were treated for 48 hours with free MMAE (492 nM), an MMAE-containing ADC (SGN-CD48A, 10 ng/ml), and a non-binding MMAE-ADC (10 ng/ml) for 48 hours. Cells were harvested, washed in flow buffer, and subsequently stained for both AnnexinV, a marker for apoptosis, and HSP70. Cells were also stained with both AnnexinV and calreticulin. In both conditions, cells that were AnnexinV negative were selected and the percent population that was positive for HSP70 or calreticulin were determined.
smiles,measurement,setting,value
"CC[C@H](C)[C@@H]([C@@H](CC(=O)N1CCC[C@H]1[C@H](OC)[C@@H](C)C(=O)N[C@H](C)[C@@H](O)c1ccccc1)OC)N(C)C(=O)[C@@H](NC(=O)[C@@H](NC)C(C)C)C(C)C [MMAE, monomethyl auristatin E] (H-[NMeV]V[Dil][Dolaproine]-X1)",Secretion of HMGB1,[1],increased secretion
same,ER stress (phosphorylation of IRE1 and JNK),[2],elicits ER stress (phosphorylation of IRE1 and JNK); also recorded: elicits ER stress (phosphorylation of IRE1 and INK)
same,ER stress responses (phosphorylation of IRE1),[3],activated ER stress responses
same,Severe ER stress response (phosphorylation of JNK),[3],more severe ER stress response that was sustained with decreasing doses
same,Antigen-presentation (frequency of MHCII-expressing cells),[4],increase in antigen-presentation in 1/2 tumor cell lines
same,Cytokine and chemokine production,[5],increase of the indicated cytokines and chemokines that was more robust than treatment with Paclitaxel
same,Macrophage antigen presentation (frequency of MHCII-expressing macrophages),[6],increase in macrophage antigen presentation
same,Cytokine and chemokine production,[7],increase of the indicated cytokines and chemokines that was more robust than treatment with Paclitaxel
same,ATP secretion,[8],robust ATP secretion that was comparable to thapsigargin
same,ATP secretion (cell lines responding),[9],potent ATP secretion from 3 of 3 cell lines evaluated
same,Macrophage antigen presentation (frequency of MHCII-expressing macrophages),[10],increase in macrophage antigen presentation that was more robust than treatment with Paclitaxel
same,Cytokine and chemokine production,[11],increase of the indicated cytokines and chemokines that was more robust than treatment with Paclitaxel
same,"Percentage of ICD markers (HSP70, calreticulin) on the cell surface of AnnexinV negative cells",[12],increase in the percentage of ICD markers
